In brackets after ≈: the same amount, converted by molar mass.

Experiment [1] addresses T1, Proteasome Macropain subunit MB1 (Homo sapiens, UniProt P28074).
T1 sequence (P28074 whole entry): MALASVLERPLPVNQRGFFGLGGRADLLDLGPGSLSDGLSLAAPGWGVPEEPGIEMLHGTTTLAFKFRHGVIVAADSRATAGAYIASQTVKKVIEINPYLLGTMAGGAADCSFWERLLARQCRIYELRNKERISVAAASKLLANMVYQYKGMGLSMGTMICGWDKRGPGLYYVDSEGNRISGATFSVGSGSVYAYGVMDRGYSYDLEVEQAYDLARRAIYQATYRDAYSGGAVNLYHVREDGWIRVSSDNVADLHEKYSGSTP
Put plainly: Inhibition of chymotrypsin-like activity of purified human erythrocyte 20S proteasome assessed as decrease in AMC hydrolysis using Suc-LLVY-AMC as substrate preincubated for 10 mins and measured by fluorescence based method.

Experiment [2] has as its target T1, Proteasome Macropain subunit MB1. Put plainly: Inhibition of chymotrypsin-like activity of purified human 20S proteasome assessed as decrease in AMC hydrolysis using Suc-Leu-Leu-Val-Tyr-AMC as substrate incubated for 30 mins by fluorometric analysis.
For experiment [3] the target is unchanged. The experiment is described as follows: Inhibition of chymotrypsin-like activity of purified human 20S proteasome expressed in human Jurkat cells assessed as decrease in AMC hydrolysis using Suc-Leu-Leu-Val-Tyr-AMC as substrate incubated for 2 hrs by fluorescence based method.
Experiment [4] shares this target. Put plainly: Inhibition of chymotrypsin-like activity of human 26S proteasome in human Jurkat cells assessed as decrease in AMC hydrolysis using Z-Gly-Gly-Leu-AMC as substrate after 24 hrs by fluorescence based method. In kind it is cell-based.
The nature of experiment [5]: Inhibition of chymotrypsin-like activity of purified rabbit 20S proteasome assessed as decrease in AMC hydrolysis using Suc-Leu-Leu-Val-Tyr-AMC as substrate incubated for 30 mins by fluorescence based method. The arrangement: species or system Oryctolagus cuniculus.
For experiment [6], the target named is T1, Proteasome Macropain subunit MB1. The experiment is described as follows: Inhibition of chymotrypsin-like activity of human 26S proteasome extracted from human LNCap cells assessed as decrease in AMC hydrolysis using Suc-Leu-Leu-Val-Tyr-AMC as substrate incubated for 60 mins by fluorescence based method. In kind it is cell-free.
The target in experiment [7] is T2, Proteasome subunit beta type-5 (Rattus norvegicus, UniProt P28075).
T2 sequence (P28075 whole entry): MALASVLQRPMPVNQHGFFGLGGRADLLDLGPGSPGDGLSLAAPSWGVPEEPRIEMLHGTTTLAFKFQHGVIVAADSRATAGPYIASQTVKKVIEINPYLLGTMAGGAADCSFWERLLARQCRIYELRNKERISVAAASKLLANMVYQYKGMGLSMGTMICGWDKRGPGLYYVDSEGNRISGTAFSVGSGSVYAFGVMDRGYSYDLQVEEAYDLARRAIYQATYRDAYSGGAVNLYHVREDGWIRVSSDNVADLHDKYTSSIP
Put plainly: Inhibition of chymotrypsin-like activity of rat liver 26 proteasome assessed as decrease in fluorescence using succinyl-Leu-Leu-Val-Tyr-4-methylcoumaryl-7-amide as substrate preincubated for 30 mins followed by addition of substrate and measured after 1 hr by fluorescence based method.

Experiment [8] is described as follows: Inhibition of chymotrypsin-like activity of rabbit 20S proteasome assessed as AMC hydrolysis using Suc-LLVY-AMC as substrate incubated for 2hrs by fluorescence based method. The arrangement: species or system Oryctolagus cuniculus.
Experiment [9] deals with T1, Proteasome Macropain subunit MB1. Put plainly: Inhibition of chymotrypsin-like activity of human 26S proteasome extracted from human Jurkat cells assessed as decrease in AMC hydrolysis using […] as substrate after 90 mins by fluorometric analysis. In kind it is cell-free.
The target is the same in experiment [10]. The experiment is described as follows: Inhibition of chymotrypsin-like activity of human 26S proteasome in human Jurkat cells assessed as decrease in AMC hydrolysis using […] as substrate preincubated for 12 hrs followed by addition of substrate and measured after 2 hrs by fluorometric analysis. In kind it is cell-based.

`O=C1C[C@@H](c2ccc(O)cc2)Oc2cc(O)ccc21` [LIQUIRTIGENIN]: the IC50 in experiment [1] is > 100 µM.
As for `O=C(O[C@@H]1Cc2c(O)cc(O)cc2O[C@@H]1c1ccc(O)c(O)c1)c1cc(O)c(O)c(O)c1` [EPICATECHIN GALLATE], the IC50 in [2] amounted to 0.194 µM.
Regarding `O=c1cc(-c2ccc(O)cc2)oc2cc(O)cc(O)c12` [APIGENIN], the IC50 was in the range of 1.8 to 2.3 µM in experiment [3] and 1 to 1.9 µM in experiment [4].
As for `O=c1c(-c2ccc(O)cc2)coc2cc(O)cc(O)c12` [GENISTEIN], the results for the IC50 in experiment [1], in [5] and in [6] were 9.26 µM, 26 µM and 65 to 70 µM, respectively.
As for `COc1cc(O)c(C(=O)c2ccc(O)cc2)c(O)c1`, the IC50 in experiment [7] is > 0.25 µg/mL.
As to `O=C(O)c1cc(O)c(O)c(O)c1` [GALLIC ACID], in experiment [2], the IC50 was found to be 7100 µM.
As to `COc1cc(/C=C/C(=O)CC(=O)/C=C/c2ccc(O)c(OC)c2)ccc1O` [CURCUMIN], the IC50 in experiment [8] is 1.85 µM.
Turning to `O=c1c(O)c(-c2ccc(O)cc2)oc2cc(O)cc(O)c12` [KAEMPFEROL], the IC50 was determined as 10.5 µM in experiment [3] and 11 µM in [4].
In the case of `O=C1C[C@@H](c2ccc(O)cc2)Oc2cc(O)cc(O)c21` [NARINGENIN], the IC50 amounted to 48.8 µM in experiment [3] and 41.6 µM in experiment [4].
Turning to `O=c1c(-c2ccc(O)cc2)coc2cc(O)ccc12` [DAIDZEIN], the IC50 in experiment [1] is > 100 µM.
Regarding `COc1ccc2c(c1)O[C@H]1c3ccc(O)cc3OC[C@@H]21`, the IC50 in experiment [1] was > 100 µM.
`COc1cc(O)ccc1CCCc1ccc(O)cc1` [BROUSSONIN B]: the IC50 in experiment [7] amounted to 0.046 µg/mL (≈ 0.178 µM).
As for `O=c1c(O)c(-c2ccc(O)c(O)c2)oc2cc(O)cc(O)c12` [QUERCETIN], the IC50 in experiment [3] is 3.5 µM; in experiment [4] it was 2 µM.
For `C=CC(/C=C\c1ccc(O)cc1)c1ccc(O)cc1` (configuration not stated), the IC50 in experiment [7] came out at 0.018 µg/mL (≈ 0.0713 µM).
Regarding `O=C1C[C@@H](c2ccc(O)c(O)c2)Oc2cc(O)cc(O)c21` [ERIODICTYOL], the IC50 is 16.2 µM in experiment [3] and 14.6 µM in experiment [4].
In the same order, the values of `O=c1c(O)c(-c2cc(O)c(O)c(O)c2)oc2cc(O)cc(O)c12` [MYRICETIN] are 10 µM and 12 µM.
On to `Oc1cc(O)c2c(c1)O[C@H](c1cc(O)c(O)c(O)c1)[C@H](O)C2` [EPIGALLOCATECHIN], for which the IC50 in [2] was determined as 1200 µM.
Take `O=c1cc(-c2ccccc2)oc2cc(O)cc(O)c12` [CHRYSIN]: the IC50 amounted to 4.9 µM in experiment [3] and 6.1 µM in experiment [4].
Regarding `O=c1cc(-c2ccc(O)c(O)c2)oc2cc(O)cc(O)c12` [LUTEOLIN], the results for the IC50 in experiment [3] and in experiment [4] were 1.5 µM and 1.3 µM, respectively.
As for `O=C(/C=C/c1ccc(O)cc1)c1ccc(O)cc1O` [ISOLIQUIRITIGENIN], in experiment [1], the IC50 is 4.88 µM.
On to `Oc1ccc(CC2COc3cc(O)ccc3C2)cc1` (configuration not stated), for which, in experiment [7], the IC50 came out at 0.06 µg/mL (≈ 0.234 µM).
On to `O=C(O[C@@H]1Cc2c(O)cc(O)cc2O[C@H]1c1ccc(O)c(O)c1)c1cc(O)c(O)c(O)c1` [(-)-CATECHINGALLATE], for which, in [2], the IC50 worked out at 0.124 µM.
For the compound `O=C(O[C@@H]1Cc2c(O)cc(O)cc2O[C@H]1c1cc(O)c(O)c(O)c1)c1cc(O)c(O)c(O)c1` [GALLOCATECHIN GALLATE], the IC50 in [2] stood at 0.187 µM.
For `COc1ccc(-c2coc3cc(O)ccc3c2=O)cc1` [FORMONONETIN], the IC50 in experiment [1] was > 100 µM.
For `O=C(O[C@@H]1Cc2c(O)cc(O)cc2O[C@@H]1c1cc(O)c(O)c(O)c1)c1cc(O)c(O)c(O)c1` [EPIGALOCATECHIN GALLATE], the IC50 in experiment [2] is 0.086 to 0.194 µM; in [9], 1 to 10 µM; in experiment [10], 18 µM.

As usually defined, the IC50 is the concentration that inhibits the measured activity by half.

The record behind these values is ChEMBL document CHEMBL4433200, “Another look at phenolic compounds in cancer therapy the effect of polyphenols on ubiquitin-proteasome system” (Eur J Med Chem, 2019).
